Measured values reported in patent publication US20240158446A1, “CYCLIC COMPOUND HAVING SELECTIVE INHIBITORY ACTION ON KRAS OVER HRAS AND NRAS” (CHUGAI SEIYAKU KABUSHIKI KAISHA, priority 2021, published 2024).

Legend:
[1] = target: GDP-bound NRAS wild-type protein (Homo sapiens, UniProt P01111); test: Binding to NRAS by surface plasmon resonance (SPR), Single Cycle Kinetics; conditions: SPR, GDP-bound NRAS wild-type protein vs GDP-bound KRAS wild-type protein
[2] = target: GDP-bound KRAS wild-type protein (Homo sapiens, UniProt P01116); test: Binding to KRAS by surface plasmon resonance (SPR), Single Cycle Kinetics; conditions: SPR, Single Cycle Kinetics, GDP-bound KRAS wild-type protein; read-out: KRAS KD
Sequence of GDP-bound KRAS wild-type protein (P01116 whole entry): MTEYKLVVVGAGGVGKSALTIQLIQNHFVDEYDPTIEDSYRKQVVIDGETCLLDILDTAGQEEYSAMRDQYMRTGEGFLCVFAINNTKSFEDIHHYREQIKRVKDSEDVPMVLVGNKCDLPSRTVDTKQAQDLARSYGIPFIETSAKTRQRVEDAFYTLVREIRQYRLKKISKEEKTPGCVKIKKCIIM

[3] = target: GDP-bound HRAS wild-type protein (Homo sapiens, UniProt P01112); test: Binding to HRAS by surface plasmon resonance (SPR), Single Cycle Kinetics; conditions: SPR, GDP-bound HRAS wild-type protein vs GDP-bound KRAS wild-type protein
Sequence of GDP-bound HRAS wild-type protein (P01112 whole entry): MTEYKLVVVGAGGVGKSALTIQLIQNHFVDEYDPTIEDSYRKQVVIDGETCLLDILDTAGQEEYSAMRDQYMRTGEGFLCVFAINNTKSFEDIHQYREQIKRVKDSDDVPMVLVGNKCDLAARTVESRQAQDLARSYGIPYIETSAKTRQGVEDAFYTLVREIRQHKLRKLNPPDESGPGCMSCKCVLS

Sequence of GDP-bound NRAS wild-type protein (P01111 whole entry): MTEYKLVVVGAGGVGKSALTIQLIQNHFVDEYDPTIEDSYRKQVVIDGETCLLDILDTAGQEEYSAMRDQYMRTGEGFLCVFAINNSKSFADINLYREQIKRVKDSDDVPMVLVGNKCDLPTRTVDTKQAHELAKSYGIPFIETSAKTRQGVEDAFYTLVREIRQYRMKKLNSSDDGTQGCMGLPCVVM

| SMILES | NRAS/KRAS (ratio of KD value for NRAS to KD value for KRAS) [1] | Kd [2] | HRAS/KRAS (ratio of KD value for HRAS to KD value for KRAS) [3] |
| --- | --- | --- | --- |
| CCO[C@@H]1C[C@H]2C(=O)NC3(CCC3)C(=O)N(C)[C@@H](C3CCCC3)C(=O)N(C)[C@H](C(=O)N(C)C)CC(=O)N(C)[C@@H](CCC(=O)N(C)C)C(=O)N[C@@H]([C@@H](C)CC)C(=O)N(C)CC(=O)N(C)[C@H]3C/C=C\CCN(C3=O)[C@@H](Cc3ccc(C(F)(F)F)cc3)C(=O)N(C)CC(=O)N[C@@H](CCc3cc(F)c(C(F)(F)F)c(F)c3)C(=O)N2C1 [PP1122] | A (a compound having 10 or more and less than 20 is denoted as A) | 47 pM | B (a compound having 3 or more and less than 10 is denoted as B) |
| CCO[C@@H]1C[C@H]2C(=O)NC3(CCC3)C(=O)N(C)[C@@H](C3CCCC3)C(=O)N(C)[C@H](C(=O)N(C)C)CC(=O)N(C)[C@@H](Cc3cccs3)C(=O)N[C@@H]([C@@H](C)CC)C(=O)N(C)CC(=O)N(C)[C@H]3C/C=C\CCN(C3=O)[C@@H](Cc3ccc(C(F)(F)F)cc3)C(=O)N(C)CC(=O)N[C@@H](CCc3cc(F)c(C(F)(F)F)c(F)c3)C(=O)N2C1 [PP1123, (2S,8S,12R,14S,20S,23S,27S,30S,36S,38Z)-20-cyclopentyl-8-[2-[3,5-difluoro-4-(trifluoromethyl)phenyl]ethyl]-12-ethoxy-N,N,4,19,22,26,32,35-octamethyl-30-[(1S)-1-methylpropyl]-3,6,9,15,18,21,25,28,31,34,42-undecaoxo-27-(2-thienylmethyl)-2-[[4-(trifluoromethyl)phenyl]methyl]spiro[1,4,7,10,16,19,22,26,29,32,35-undecazatricyclo[34.5.1.0^10,14]dotetracont-38-ene-17,1′-cyclobutane]-23-carboxamide] | A (a compound having 10 or more and less than 20 is denoted as A) | 72 pM | B (a compound having 3 or more and less than 10 is denoted as B) |
| CCO[C@@H]1C[C@H]2C(=O)NC3(CCC3)C(=O)N(C)[C@@H](C3CCCC3)C(=O)N(C)[C@H](C(=O)N(C)C)CC(=O)N(C)[C@@H](CC(F)(F)F)C(=O)N[C@@H]([C@@H](C)CC)C(=O)N(C)CC(=O)N(C)[C@H]3C/C=C\CCN(C3=O)[C@@H](Cc3ccc(C(F)(F)F)cc3)C(=O)N(C)CC(=O)N[C@@H](CCc3cc(F)c(C(F)(F)F)c(F)c3)C(=O)N2C1 [PP1124, (2S,8S,12R,14S,20S,23S,27S,30S,36S,38Z)-20-cyclopentyl-8-[2-[3,5-difluoro-4-(trifluoromethyl)phenyl]ethyl]-12-ethoxy-N,N,4,19,22,26,32,35-octamethyl-30-[(1S)-1-methylpropyl]-3,6,9,15,18,21,25,28,31,34,42-undecaoxo-27-(2,2,2-trifluoroethyl)-2-[[4-(trifluoromethyl)phenyl]methyl]spiro[1,4,7,10,16,19,22,26,29,32,35-undecazatricyclo[34.5.1.0^10,14]dotetracont-38-ene-17,1′-cyclobutane]-23-carboxamide] | A (a compound having 10 or more and less than 20 is denoted as A) | 56 pM | B (a compound having 3 or more and less than 10 is denoted as B) |
| CCO[C@@H]1C[C@H]2C(=O)NC3(CCC3)C(=O)N(C)[C@@H](C3CCCC3)C(=O)N(C)[C@H](C(=O)N(C)C)CC(=O)N(C)[C@@H](CC3CCCCC3)C(=O)N[C@@H]([C@@H](C)CC)C(=O)N(C)CC(=O)N(C)[C@H]3C/C=C\CCN(C3=O)[C@@H](Cc3ccc(C(F)(F)F)cc3)C(=O)N(C)CC(=O)N[C@@H](CCc3cc(F)c(C(F)(F)F)c(F)c3)C(=O)N2C1 [PP1125, (2S,8S,12R,14S,20S,23S,27S,30S,36S,38Z)-27-(cyclohexylmethyl)-20-cyclopentyl-8-[2-[3,5-difluoro-4-(trifluoromethyl)phenyl]ethyl]-12-ethoxy-N,N,4,19,22,26,32,35-octamethyl-30-[(1S)-1-methylpropyl]-3,6,9,15,18,21,25,28,31,34,42-undecaoxo-2-[[4-(trifluoromethyl)phenyl]methyl]spiro[1,4,7,10,16,19,22,26,29,32,35-undecazatricyclo[34.5.1.0^10,14]dotetracont-38-ene-17,1′-cyclobutane]-23-carboxamide] | A (a compound having 10 or more and less than 20 is denoted as A) | 70 pM | A (a compound having 10 or more and less than 20 is denoted as A) |
| CCO[C@@H]1C[C@H]2C(=O)NC3(CCC3)C(=O)N(C)[C@@H](C3CCCC3)C(=O)N(C)[C@H](C(=O)N(C)C)CC(=O)N(C)[C@@H](Cc3cccc(F)c3)C(=O)N[C@@H]([C@@H](C)CC)C(=O)N(C)CC(=O)N(C)[C@H]3C/C=C\CCN(C3=O)[C@@H](Cc3ccc(C(F)(F)F)cc3)C(=O)N(C)CC(=O)N[C@@H](CCc3cc(F)c(C(F)(F)F)c(F)c3)C(=O)N2C1 [PP1126, (2S,8S,12R,14S,20S,23S,27S,30S,36S,38Z)-20-cyclopentyl-8-[2-[3,5-difluoro-4-(trifluoromethyl)phenyl]ethyl]-12-ethoxy-27-[(3-fluorophenyl)methyl]-N,N,4,19,22,26,32,35-octamethyl-30-[(1S)-1-methylpropyl]-3,6,9,15,18,21,25,28,31,34,42-undecaoxo-2-[[4-(trifluoromethyl)phenyl]methyl]spiro[1,4,7,10,16,19,22,26,29,32,35-undecazatricyclo[34.5.1.0^10,14]dotetracont-38-ene-17,1′-cyclobutane]-23-carboxamide] | A (a compound having 10 or more and less than 20 is denoted as A) | 89 pM | A (a compound having 10 or more and less than 20 is denoted as A) |
| CCO[C@@H]1C[C@H]2C(=O)NC3(CCC3)C(=O)N(C)[C@@H](C3CCCC3)C(=O)N(C)[C@H](C(=O)N(C)C)CC(=O)N(C)[C@@H](Cc3cccc(Cl)c3)C(=O)N[C@@H]([C@@H](C)CC)C(=O)N(C)CC(=O)N(C)[C@H]3C/C=C\CCN(C3=O)[C@@H](Cc3ccc(C(F)(F)F)cc3)C(=O)N(C)CC(=O)N[C@@H](CCc3cc(F)c(C(F)(F)F)c(F)c3)C(=O)N2C1 [PP1127, (2S,8S,12R,14S,20S,23S,27S,30S,36S,38Z)-27-[(3-chlorophenyl)methyl]-20-cyclopentyl-8-[2-[3,5-difluoro-4-(trifluoromethyl)phenyl]ethyl]-12-ethoxy-N,N,4,19,22,26,32,35-octamethyl-30-[(1S)-1-methylpropyl]-3,6,9,15,18,21,25,28,31,34,42-undecaoxo-2-[[4-(trifluoromethyl)phenyl]methyl]spiro[1,4,7,10,16,19,22,26,29,32,35-undecazatricyclo[34.5.1.0^10,14]dotetracont-38-ene-17,1′-cyclobutane]-23-carboxamide] | AA (a compound having 20 or more is denoted as AA) | 110 pM | A (a compound having 10 or more and less than 20 is denoted as A) |
